# Test results taken from publication PMC9750798, “A metabotropic glutamate receptor affects the growth and development of Schistosoma japonicum” (Frontiers in Microbiology, 2022).
# Molecular target: T1, SjGRM7 (Schistosoma japonicum, UniProt A0A4Z2D6G5)
# T1 construct: gene EWB00_004136; S. mansoni homologue is Smp_128940
# T1 sequence (A0A4Z2D6G5 24-1036): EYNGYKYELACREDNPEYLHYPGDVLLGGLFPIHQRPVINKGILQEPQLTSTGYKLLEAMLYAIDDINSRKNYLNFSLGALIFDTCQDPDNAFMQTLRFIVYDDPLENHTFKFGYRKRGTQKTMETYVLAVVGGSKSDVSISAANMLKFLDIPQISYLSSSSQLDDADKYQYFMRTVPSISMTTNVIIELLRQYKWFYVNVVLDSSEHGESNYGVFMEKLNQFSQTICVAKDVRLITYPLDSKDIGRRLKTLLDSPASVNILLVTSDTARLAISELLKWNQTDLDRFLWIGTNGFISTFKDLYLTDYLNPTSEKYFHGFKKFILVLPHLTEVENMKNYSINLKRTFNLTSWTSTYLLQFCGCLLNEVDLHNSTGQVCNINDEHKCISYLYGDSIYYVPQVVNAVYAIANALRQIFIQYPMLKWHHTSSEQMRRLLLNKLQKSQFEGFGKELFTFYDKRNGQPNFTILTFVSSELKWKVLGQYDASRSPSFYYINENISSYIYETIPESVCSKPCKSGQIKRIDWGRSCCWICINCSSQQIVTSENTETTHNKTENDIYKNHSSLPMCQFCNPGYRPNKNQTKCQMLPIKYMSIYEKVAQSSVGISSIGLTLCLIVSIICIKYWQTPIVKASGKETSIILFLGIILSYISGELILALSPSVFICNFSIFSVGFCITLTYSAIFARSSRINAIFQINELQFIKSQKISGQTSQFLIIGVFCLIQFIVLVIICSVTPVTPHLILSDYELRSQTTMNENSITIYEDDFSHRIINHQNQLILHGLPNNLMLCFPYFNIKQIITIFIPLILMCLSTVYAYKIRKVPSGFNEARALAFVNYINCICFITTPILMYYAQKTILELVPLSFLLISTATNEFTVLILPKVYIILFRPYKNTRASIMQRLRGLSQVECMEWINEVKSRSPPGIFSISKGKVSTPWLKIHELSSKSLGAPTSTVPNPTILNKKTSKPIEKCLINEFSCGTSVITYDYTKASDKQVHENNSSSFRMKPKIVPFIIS
# Assay: Fluo-4 calcium mobilization in transfected HEK293T cells
# Assay type: cell-based
# Details: agonist; co-expressed G-alpha16; dose series
smiles,measurement,value
N[C@@H](CCC(=O)O)C(=O)O [L-glutamate],Fluo-4 calcium mobilization in transfected HEK293T cells,SjGRM and SjGRM7 responded only to L-glutamate
